Test results from patent US20230227398A1, “MESCALINE DERIVATIVES WITH MODIFIED ACTION” (Mind Medicine, Inc., priority 2021, published 2023).
“Also recorded” adds a separate entry of the source.

Tests used:
[1] = Duration of action and potency of mescaline derivatives; set-up: species or system humans; conditions: in vivo
From the text: Together, the in vitro profiles of mescaline and its derivatives represented in FIG. 1 compared with that of psilocin and LSD indicate overall psychedelic properties of all compounds but also differences that likely manifest when used in humans. Accordingly, some mescaline derivatives will exert psychedelic acute effect profiles that are more beneficial to some patients including but not limited to: more overall positive effects, more or less perceptual effects, more emotional effects, less anxiety, less cardio-stimulant effects, less adverse effects, less nausea, longer and also shorter effects among other properties and compared to mescaline. Specifically, taken together the pharmacological data and structural specifics on the substances tested herein some compounds are of particular interest. FE and FP have a relatively short duration of action (<6 hours) compared with mescaline and potentially empathogenic MDMA-like effects.
The compounds represented by FIG. 1 act with shorter, with similar or with longer duration of action in human in comparison to the original mescaline molecule. This is triggered by modification of the molecular structure in FIG. 1.

[2] = target: 5-HT2A receptor (Homo sapiens, UniProt P28223); conditions: cited from earlier work
[3] = target: D2 receptors (Homo sapiens, UniProt P14416); conditions: cited from earlier work
[4] = target: 5-HT transporter (SERT) (Homo sapiens, UniProt P31645); conditions: cited from earlier work
[5] = system: monoamine transporters; assay: Inhibition of monoamine transport (in vitro profiling); assay type: biochemical
From the text: Activity of compounds at monoamine transporters are thought to mediate MDMA-like empathogenic effects (Hysek et al., 2012). Importantly, mescaline is a very weak 5-HT2A receptor ligand and high doses are needed to induce psychoactive effects in humans. However, despite its low potency, mescaline can have extraordinarily strong psychedelic effects in humans at high doses and the same is likely the case for the substances developed within the present invention although 10-20-fold higher potency is also possible in some compounds, to be evaluated in detail clinically. Key results of pharmacological profiling of the compounds described herein were: […]

[6] = target: T1, 5-HT1A receptor (Homo sapiens, UniProt P08908); conditions: background art; cited from earlier work
T1 sequence (P08908 1-422): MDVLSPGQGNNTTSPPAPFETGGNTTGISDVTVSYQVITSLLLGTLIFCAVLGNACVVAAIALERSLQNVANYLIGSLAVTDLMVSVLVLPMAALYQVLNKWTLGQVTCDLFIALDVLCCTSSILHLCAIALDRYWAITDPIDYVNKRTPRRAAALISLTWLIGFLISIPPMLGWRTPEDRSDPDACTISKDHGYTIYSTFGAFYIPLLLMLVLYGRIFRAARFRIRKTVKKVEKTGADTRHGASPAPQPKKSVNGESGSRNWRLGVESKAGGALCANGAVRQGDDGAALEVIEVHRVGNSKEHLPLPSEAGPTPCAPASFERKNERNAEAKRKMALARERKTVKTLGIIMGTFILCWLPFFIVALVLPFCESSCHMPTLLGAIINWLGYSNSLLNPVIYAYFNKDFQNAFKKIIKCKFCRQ

[7] = system: dopaminergic receptors; assay: Binding to dopaminergic receptors (in vitro profiling); conditions: in contrast to LSD
[8] = target: T2, serotonin 5-HT2A receptor (Homo sapiens, UniProt P28223); assay: 5-HT2A receptor binding (in vitro profiling at key targets)
[9] = humans, cited from earlier work
[10] = humans (Charalampous, 1966); cited from earlier work
[11] = target: T3, α2A receptors (Homo sapiens, UniProt P08913); conditions: background art; cited from earlier work
T3 sequence (P08913 1-465): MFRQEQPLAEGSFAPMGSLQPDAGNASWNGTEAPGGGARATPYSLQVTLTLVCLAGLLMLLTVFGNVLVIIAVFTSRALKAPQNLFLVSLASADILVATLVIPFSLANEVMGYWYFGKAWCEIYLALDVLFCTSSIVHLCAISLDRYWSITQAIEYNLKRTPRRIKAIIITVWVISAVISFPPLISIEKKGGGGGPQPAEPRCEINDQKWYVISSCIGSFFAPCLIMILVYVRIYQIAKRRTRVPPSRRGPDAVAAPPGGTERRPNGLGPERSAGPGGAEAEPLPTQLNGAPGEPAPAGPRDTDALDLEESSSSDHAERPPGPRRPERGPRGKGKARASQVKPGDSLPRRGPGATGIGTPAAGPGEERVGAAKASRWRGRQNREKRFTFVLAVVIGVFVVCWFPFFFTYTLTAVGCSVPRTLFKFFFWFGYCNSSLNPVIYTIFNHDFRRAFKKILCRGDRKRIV

[12] = target: T2, serotonin 5-HT2A receptor; conditions: background art; cited from earlier work

5-HT2A receptor, sequence (P28223 whole entry): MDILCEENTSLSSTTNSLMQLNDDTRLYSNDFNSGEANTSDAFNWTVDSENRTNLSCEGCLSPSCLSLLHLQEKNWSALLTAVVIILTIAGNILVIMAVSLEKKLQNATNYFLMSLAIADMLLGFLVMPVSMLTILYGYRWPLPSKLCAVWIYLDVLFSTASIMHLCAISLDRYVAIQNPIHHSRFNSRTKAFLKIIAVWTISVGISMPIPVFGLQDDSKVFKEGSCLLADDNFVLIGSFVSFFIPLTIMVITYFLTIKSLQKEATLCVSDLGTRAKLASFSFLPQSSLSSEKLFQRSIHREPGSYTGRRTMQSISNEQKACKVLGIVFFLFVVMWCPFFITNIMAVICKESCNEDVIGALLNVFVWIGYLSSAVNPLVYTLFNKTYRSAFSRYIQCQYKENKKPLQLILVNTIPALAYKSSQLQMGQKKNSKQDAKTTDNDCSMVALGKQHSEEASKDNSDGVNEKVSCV
T2 sequence (P28223 whole entry): as above
D2 receptors, sequence (P14416 whole entry): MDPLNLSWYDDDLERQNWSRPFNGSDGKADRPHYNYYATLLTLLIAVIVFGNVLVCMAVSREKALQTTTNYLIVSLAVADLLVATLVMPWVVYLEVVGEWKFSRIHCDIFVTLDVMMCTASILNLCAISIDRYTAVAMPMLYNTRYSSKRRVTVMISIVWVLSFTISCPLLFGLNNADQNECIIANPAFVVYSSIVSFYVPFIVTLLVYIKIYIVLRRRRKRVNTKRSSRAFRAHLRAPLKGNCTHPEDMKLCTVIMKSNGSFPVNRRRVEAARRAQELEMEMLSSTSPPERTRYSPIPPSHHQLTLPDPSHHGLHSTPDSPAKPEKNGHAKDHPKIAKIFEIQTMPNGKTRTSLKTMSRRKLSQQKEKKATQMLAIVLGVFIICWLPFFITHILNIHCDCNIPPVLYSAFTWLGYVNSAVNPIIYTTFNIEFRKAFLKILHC
5-HT transporter (SERT), sequence (P31645 whole entry): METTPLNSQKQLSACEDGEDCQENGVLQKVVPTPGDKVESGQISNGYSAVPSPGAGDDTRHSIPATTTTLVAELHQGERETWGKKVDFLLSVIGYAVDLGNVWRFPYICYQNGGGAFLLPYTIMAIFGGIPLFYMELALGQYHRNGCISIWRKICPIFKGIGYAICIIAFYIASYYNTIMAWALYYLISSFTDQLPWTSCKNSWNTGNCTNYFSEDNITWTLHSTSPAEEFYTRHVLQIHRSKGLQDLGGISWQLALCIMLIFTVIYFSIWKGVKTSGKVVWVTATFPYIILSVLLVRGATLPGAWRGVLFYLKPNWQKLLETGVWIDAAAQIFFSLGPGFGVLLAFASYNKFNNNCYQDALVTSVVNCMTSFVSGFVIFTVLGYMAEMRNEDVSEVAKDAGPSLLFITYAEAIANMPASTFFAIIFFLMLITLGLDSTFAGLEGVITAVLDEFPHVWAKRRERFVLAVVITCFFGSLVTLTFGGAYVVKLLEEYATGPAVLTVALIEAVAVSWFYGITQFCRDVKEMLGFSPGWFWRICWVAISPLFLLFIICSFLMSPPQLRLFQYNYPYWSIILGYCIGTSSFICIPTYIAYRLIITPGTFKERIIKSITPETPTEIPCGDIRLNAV

In the case of `COc1cc(CCN)cc(OC)c1OC(F)F.Cl` [DFM, 4-Difluoromethoxy-3,5-dimethoxyphenethylamine hydrochloride], the “potency (in words)” value [1] is reported as “relatively potent”.
For `CN(C)CCc1c[nH]c2ccccc12` [DMT, N,N-dimethyltryptamine], the “agonism / stimulation of the 5-HT2A receptor (in words)” value (shortened to “agonism / stimulation”) [2] is given as “agonists”.
For `CCN(CC)C(=O)[C@@H]1C=C2c3cccc4[nH]cc(c34)C[C@H]2N(C)C1` [LSD, lysergic acid diethylamide], the “affinity / activity at D2 receptors (in words)” value [3] is listed as “has activity” and the “agonism / stimulation” value [2] is listed as “agonists; also recorded: potently stimulates”.
For `CN(C)CCc1c[nH]c2cccc(O)c12` [Psilocin], the “interaction with / inhibition of SERT (in words)” value [4] is listed as “inhibits” and the “agonism / stimulation” value [2] is listed as “stimulates”.
For `COc1cc(CCN)cc(OC)c1OCC(F)(F)F.Cl` [TFE, 3,5-Dimethoxy-4-(2,2,2-trifluoroethoxy)phenethylamine hydrochloride], the “potency (in words)” value [1] was “relatively potent”.
For `COc1cc(CCN)cc(OC)c1OC` [mescaline], the “inhibition of monoamine transport (in words)” value [5] is listed as “did not inhibit monoamine transport”, the “binding to 5-HT1A receptor (in words)” value [6] is listed as “rather low concentration range” and the “binding to dopaminergic receptors (in words)” value [7] is listed as “did not relevantly bind”. The “5-HT2A receptor binding affinity / binding potency (in words)” value [8] was “very weak”, the “interaction with / inhibition of SERT (in words)” value [4] was “do not interact” and the “subjective effects last (duration)” value ([9]; dose-dependently) was 10 to 16 h. The “subjective effects appear (onset)” value ([9]; psychoactive doses) was ≤ 30 min, the subjective effects peak ([9]; psychoactive doses) was 4 h and the “doses needed to induce a full psychedelic experience” value [9] was 200 to 800 mg. For the same molecule, the “affinity / activity at D2 receptors (in words)” value [3] was “no affinity”, the “eliminated in urine unchanged, fraction of the dose ingested” value [10] was “up to two thirds” and the plasma half-life [10] was “approximately 6 hours”. For the same molecule, the “binding to α2A receptors (in words)” value [11] was “rather low concentration range”, the “binding to 5-HT2A receptor (in words)” value [12] was “rather low concentration range” and the “agonism / stimulation” value [2] was “agonists”.
